Test results taken from PMC7910394, “Design of PSMA ligands with modifications at the inhibitor part: an approach to reduce the salivary gland uptake of radiolabeled PSMA inhibitors?” (EJNMMI Radiopharmacy and Chemistry, 2021).

Assays:
[1] = test system: LNCaP tumor xenograft-bearing CB17-SCID mouse; type: in vivo; conditions: 1 h p.i.
Method: Detailed information on organ preparation and extraction procedures is provided in the supporting information. In brief, [^177Lu]Lu-11 (9.64 MBq) was injected into the tail vein of a LNCaP tumor xenograft-bearing CB17-SCID mouse. The animal was sacrificed 1 h p.i. and subjected to the standard procedure for biodistribution studies. In addition, urine was taken from all mice that were investigated in this experiment (8.4–9.0 MBq injected activity) and pooled (n = 5). Liver, tumor and kidneys were homogenized with a MM-400 ball mill (Retsch GmbH, Haan, Germany) at 30 Hz for 20 min and extracted with 1 mL radioimmunoprecipitation assay (RIPA) buffer containing 2 μmol of 2-(phosphonomethyl)pentane-1,5-dioic acid (2-PMPA). The suspension was centrifuged (15,200 rpm, 10 min, 21 °C) and the supernatants were loaded onto a preconditioned Strata-X cartridge (200 mg). Elution of the activity was conducted by 750 μL of MeCN/H2O (6/4, 0.1% TFA) and the extracts were analyzed via radio-RP-HPLC. Prior to solid phase extraction, blood samples were centrifuged twice (13,000 rpm, 5 min) to separate the plasma from the blood cells. Urine samples were also centrifuged (13,000 rpm, 5 min) and the supernatant was directly analyzed via radio-RP-HPLC.
Besides biodistribution and μSPECT/CT studies, [^177Lu]Lu-11 (tetrazole) was analyzed according to its metabolic stability 1 h p.i. Relevant dissected organs (tumor, kidney, liver) and body fluids (blood and urine) were collected, homogenized if necessary and subjected to extraction of the incorporated activity. […] The respective radio-RP-HPLC analyses of extracts from homogenized organs and body fluids are depicted in Figure 1 in the supporting information.
[^177Lu]Lu-11 (9.64 MBq) was injected into the tail vein of a LNCaP tumor xenograft-bearing CB17-SCID mouse. The animal was sacrificed 1 h p.i. and subjected to the standard procedure for biodistribution studies. In addition, urine was taken from all mice that were investigated in this experiment (8.4 - 9.0 MBq) and pooled (n = 5). Relevant dissected organs (tumor, kidneys, liver) and body fluids (blood and urine) were collected, homogenized if necessary and subjected to mechanochemical as well as solid phase extraction (SPE).
Four 2 mL LoBind tubes were equipped with steel and ceramic beads from Lysis Tubes W (analytikjena, Jena, Germany) for kidneys, tumor and liver (bisected). 1 mL radioimmunoprecipitation assay (RIPA) buffer containing 2.0 µmol of 2-PMPA was added to each tube and the organs were homogenized with a MM-400 ball mill (Retsch GmbH, Haan, Germany) at 30 Hz for 20 min. Afterwards, the homogenates were transferred to LoBind tubes free from steel and ceramic beads and centrifuged (15,200 rpm, 10 min, 21 °C). The first supernatants were stored, and the precipitates were again subjected to mechanochemical extraction with 1 mL RIPA buffer (2.0 µmol PMPA) at 30 Hz for 20 min. After centrifugation (15,200 rpm, 10 min, 21 °C), also the second supernatants were kept for SPE.
After cardiac puncture, 1 mL Tracepur®-H2O was directly added to the collected blood sample and centrifuged twice (13,000 rpm, 5 min) to separate the plasma from the blood cells. The precipitate was dissolved in 500 µL Tracepur®-H2O and together with the first supernatant again centrifuged (13,000 rpm, 5 min). Both supernatants were kept for SPE.
Pooled urine samples were centrifuged (13,000 rpm, 5 min) and the supernatant was directly analyzed via radio-RP-HPLC.

LNCaP cells = assay: Internalization study of 177Lu-labeled ligands in LNCaP cells, normalized to ([125I]I-BA)KuE; type: cell-based, human; conditions: 1 h, 37 °C, 1.0 nM 177Lu-compound, normalized to ([125I]I-BA)KuE
Method: PSMA-positive LNCaP cells (300265; Cell Lines Service, Eppelheim, Germany) were cultivated in Dulbecco’s modified Eagle medium/Nutrition Mixture F-12 with GlutaMAX (1/1, DMEM-F12, Thermo Fisher Scientific, Darmstadt, Germany) supplemented with 10% fetal bovine serum (Merck KGaA, Darmstadt, Germany) and kept at 37 °C in a humidified 5% CO2 atmosphere. One day (24 ± 2 h) prior to all in vitro experiments, the cultivated LNCaP cells were harvested using a mixture of trypsin/ethylenediamine-tetraacetic acid (0.05%/0.02%) in PBS (Thermo Fisher Scientific, Darmstadt, Germany) and centrifuged at 1300 rpm (ca. 190×g) for 3 min at room temperature (Heraeus Megafuge 16, Thermo Fisher Scientific, Darmstadt, Germany). After centrifugation, the supernatant was disposed and the cell pellet was resuspended in culture medium. Cells were counted with a Neubauer hemocytometer (Paul Marienfeld GmbH & Co. KG, Lauda-Königshofen, Germany) and seeded in 24-well plates.
Detailed information on affinity and internalization experiments is provided in the supporting information. […] IC50 values of (^natI-BA)KuE were determined on the same day for monitoring assay performance and to identify abnormal deviations in uptake and/or affinity. […] Data were corrected for non-specific binding and normalized to the specific internalization observed for the radioiodinated reference compound (n = 3).
The culture medium was removed and the cells were washed with 500 µL of DMEM-F12 containing 5% BSA. Afterwards, 200 µL of DMEM-F12 (5% BSA) were added to each well and left to equilibrate at 37 °C for 15 min. 25 µL of DMEM-F12 (5% BSA) were added to each well, followed by the addition of 25 µL of the respective ^177Lu-labeled ligand (10.0 nM in DMEM-F12 (5% BSA)). For blocking PSMA-specific binding and uptake, 25 µL of 2-(phosphonomethyl)pentane-1,5-dioic acid (2-PMPA) (100 µM in DMEM (5% BSA)) instead of DMEM-F12 (5% BSA) were added prior to radiotracer addition. […] Each experiment (control and blockade) was performed in triplicate. […] Incubation was terminated by placing the plate on ice (4 °C, 1 min) and removal of the incubation medium. The cells were washed with 250 µL of ice-cold PBS and the wash medium was combined with the respective supernatant. This fraction represents the amount of free radioligand. 250 µL of ice-cold 2-PMPA (10 µM in PBS) were added and the cells were incubated for 10 min at 4 °C. Afterwards, the cells were rinsed again with 250 µL of ice-cold PBS and the wash medium was combined with the respective supernatant. This fraction represents the amount of cell surface-bound ligand. In the last step, the cells were lysed by addition of 250 µL of 1 M aqueous NaOH. After 20 min, the lysate of each well was transferred to the respective vial as well as 250 µL of 1 M NaOH used for rinsing the well. This fraction represents the amount of internalized radioligand. Quantification of the amount of free, cell surface-bound and internalized activity was performed in a γ-counter.

SMILES: CC(C)(C)[Si](F)(c1ccc(C(=O)NC[C@@H](NC(=O)CN2CCN(CC(=O)[O-])CCN(CC(=O)[O-])CCN(CC(=O)[O-])CC2)C(=O)N[C@H](CCCCNC(=O)CCC(=O)NCCC[C@@H](NC(=O)CC[C@H](NC(=O)N[C@@H](CCc2nnn[nH]2)C(=O)O)C(=O)O)C(=O)O)C(=O)O)cc1)C(C)(C)C.[Lu+3] [^natLu/[^177Lu]Lu-11]
- metabolite with higher hydrophilicity found in the urine ([1]; pooled urine (n = 5)): 18.7%
- metabolite with higher hydrophilicity detected in blood ([1]; radio-RP-HPLC of extract): 8.5%
- metabolite with higher hydrophilicity detected in kidney ([1]; radio-RP-HPLC of extract): 11.7%
- metabolite with higher hydrophilicity detected in tumor ([1]; radio-RP-HPLC of extract): 7.1%
- metabolite with higher hydrophilicity in the liver homogenate ([1]; radio-RP-HPLC of extract): not detectable
- more lipophilic metabolite (tR = 20.5 min) in the liver homogenate ([1]; radio-RP-HPLC of extract): 28.0%
- %Internalization compared to the reference (LNCaP cells): 1 h: 9.9 ± 3.2%
- %Internalization compared to the reference (LNCaP cells; listed as [^177Lu]Lu-11): 9.9 ± 3.2%
